# Data as given in patent publication US20110034371A1, “L. CASEI RHAMNOSUS SECRETED FACTORS AND USE THEREOF” (priority 2009, published 2011).
# Tests used:
# THP-1 cells = experiment: Annexin V-FITC and PI staining, flow cytometry: apoptosis of THP-1 cells; type: cell-based, human
# Description: (§1) Lymphocytes, monocytes and THP-1 cells (10^6 per test) were collected after incubation with LcrS, 3.125-25 μg mL^−1, for various times. After washing twice with PBS, the cells were resuspended in Annexin V binding buffer (10 mM HEPES-NaOH (pH 7.4), 140 mM NaCl, and 2.5 mM CaCl2). After centrifugation, the cells were incubated in 500 μl of the same buffer containing 1.25 it FITC-conjugated Annexin V (BD PharMingen, San Diego, Calif., USA) at room temperature for 15 min in the dark. Data acquisition and analysis were performed by the Becton-Dickinson FACSan flow cytometer (Franklin Lakes, N.J., USA) using CellQuest software (Becton-Dickinson, Oxford, UK). […]
# as §1, with “500 W” for “500 μl”, “1.25 μl” for “1.25 it”
# as §1, with “1.25 μl” for “1.25 it”
# The TGF-β regulates a wide variety of biological functions including apoptosis. The TGF-β production was increasing in the LcrS5-30 treated THP-1 cells. It was reasonable to postulate that apoptosis might be triggered by TGF-β rather than the LcrS5-30. To confirm this assumption, a pharmacological inhibitor, SB431542, would be applied. The percentages of apoptotic cells in 10 ng mL^−1 and 1 ng mL^−1 TGF-β exposed preparations were 18.9±0.44% and 16.57±0.67%, respectively (FIG. 8B). Treatment with 12.5 μg mL^−1 or 25 μg mL^−1 of the LcrS5-30 induced dissimilar level of apoptosis of THP-1 cells that were 26.35±0.77% and 74.96±0.38%, respectively.
# [1] = test system: human peripheral blood T cells; settings: 18 h culture, 5 μg mL^−1; cited from earlier work
molecule,measurement,setting,value
NC(=O)c1ccc(-c2nc(-c3ccc4c(c3)OCO4)c(-c3ccccn3)[nH]2)cc1 [SB-431542],blocking of TGF-β1-induced apoptosis,"THP-1 cells; 1 μg mL^−1 inhibitor, 24 h",significantly blocked
same,blocking of apoptosis,"THP-1 cells; 1 μg mL^−1 inhibitor, 24 h",significantly blocked
TGF-β: anti-inflammatory cytokine applied to THP-1 cells at 1 and 10 ng mL^−1,percentage of apoptotic cells,"THP-1 cells; 1 ng mL^−1, 24 h",16.57±0.67%
same,percentage of apoptotic cells,"THP-1 cells; 10 ng mL^−1, 24 h",18.9±0.44%
same,induced apoptosis in the presence of TGF-β inhibitor SB431542,"THP-1 cells; One ng mL^−1, 1 μg mL^−1 SB431542, 24 h",SB431542 sensitive
infliximab,killing activity (as much as),[1],≤ 50.6%
